Test results from PubChem BioAssay AID220 (DTP/NCI, 2004).
“And” between values parts separate entries of the source, which are not always exact repeats. Equal entries are not always repeated. Inconclusive results are not listed. Starred links: 1 amine or outer side, 2 acyl side, 3 side chain; linkers in the order of their positions; H or OH if unused. Positions of bridges follow the written chain, without caps; N, C: chain ends. Non-standard residues stand in square brackets, D forms with d. Residues, ends and D or L forms follow the SMILES beside them. Chains are numbered I, II in the order given. Actinocin(1to9) = Cc1c2oc3c(C)ccc(C(=O)[*:2])c3nc-2c(C(=O)[*:1])c(N)c1=O; NMeV = CN[CH](C(=O)O)C(C)C; Aze = O=C(O)[CH]1CCN1; Sar = CNCC(=O)O

Tested on: CD8F1 mice, subcutaneous mammary adenocarcinoma, T/C%
Test: NCI In Vivo Anticancer Drug Screen. Data for tumor model Mammary Adenocarcinoma CD8F1 (subcutaneous) in CD8F1
Details: higher = larger tumour
Method in brief: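 Antitumor activity is assessed in transplantable-tumor mice by comparing the treated group with a vehicle-treated control group. Survival or tumor size serves as the measure, reported as T divided by C.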

[1] = endpoint: median tumor weight (est.), dose: 25.0 mg/kg/injection, schedule: Q07DX005 (ip), vehicle: Klucel (hydroxypropylcellulose) (HPC)
[2] = endpoint: median tumor weight (est.), dose: 50.0 mg/kg/injection, schedule: Q07DX005 (ip), vehicle: Klucel (hydroxypropylcellulose) (HPC)
[3] = endpoint: median tumor weight change, dose: 62.0 mg/kg/injection, schedule: Q01DX001 (ip), vehicle: saline with Tween-80
[4] = endpoint: median tumor weight change, dose: 62.5 mg/kg/injection, schedule: Q01DX001 (ip), vehicle: saline with Tween-80
[5] = endpoint: median tumor weight change, dose: 125.0 mg/kg/injection, schedule: Q01DX001 (ip), vehicle: saline with Tween-80
[6] = endpoint: median tumor weight change, dose: 250.0 mg/kg/injection, schedule: Q01DX001 (ip), vehicle: saline with Tween-80
[7] = endpoint: median tumor weight (est.), dose: 12.5 mg/kg/injection, schedule: Q07DX005 (ip), vehicle: saline with Tween-80
[8] = endpoint: median tumor weight (est.), dose: 25.0 mg/kg/injection, schedule: Q07DX005 (ip), vehicle: saline with Tween-80
[9] = endpoint: median tumor weight (est.), dose: 50.0 mg/kg/injection, schedule: Q07DX005 (ip), vehicle: saline with Tween-80
[10] = endpoint: median tumor weight (est.), dose: 100.0 mg/kg/injection, schedule: Q07DX005 (ip), vehicle: saline with Tween-80
[11] = endpoint: median tumor weight (est.), dose: 25.0 mg/kg/injection, schedule: Q07DX005 (ip), vehicle: saline
[12] = endpoint: median tumor weight (est.), dose: 50.0 mg/kg/injection, schedule: Q07DX005 (ip), vehicle: saline

C1CCC2OCCOCCOC3CCCCC3OCCOCCOC2C1 (stereo not drawn)
T/C (endpoint: median tumor weight (est.), dose: 3.12 mg/kg/injection, schedule: Q07DX005 (ip), vehicle: Klucel (hydroxypropylcellulose) (HPC)): 90 % of control | T/C (endpoint: median tumor weight (est.), dose: 6.25 mg/kg/injection, schedule: Q07DX005 (ip), vehicle: Klucel (hydroxypropylcellulose) (HPC)): 55 % of control | T/C [1]: 70 % of control | T/C [2]: 83 % of control

Cc1c2ccccc2c(C)c2c1cc(C(=O)O)c1ccccc12
T/C (endpoint: median tumor weight change, dose: 50.0 mg/kg/injection, schedule: Q01DX001 (ip), vehicle: sodium bicarbonate): 83 % of control | T/C (endpoint: median tumor weight change, dose: 100.0 mg/kg/injection, schedule: Q01DX001 (ip), vehicle: sodium bicarbonate): 82 % of control | T/C (endpoint: median tumor weight change, dose: 200.0 mg/kg/injection, schedule: Q01DX001 (ip), vehicle: sodium bicarbonate): 155 % of control | T/C (endpoint: median tumor weight change, dose: 400.0 mg/kg/injection, schedule: Q01DX001 (ip), vehicle: sodium bicarbonate): 153 % of control

C[Si](C)(C)O/C=C1\CCCCC1=O
T/C [3]: 70 % of control | T/C [4]: 119 % of control | T/C [5]: 54 % of control and 69 % of control | T/C [6]: 93 % of control

NS(=O)(=O)OCCCCCCCOS(N)(=O)=O
T/C [3]: 66 % of control | T/C [4]: 22 % of control | T/C [5]: 33 % of control and 34 % of control | T/C [6]: -27 % of control and -36 % of control

NC(N)=NC(N)=Nc1ccc(-c2ccc(N=C(N)N=C(N)N)cc2)cc1
T/C (endpoint: median tumor weight (est.), dose: 3.12 mg/kg/injection, schedule: Q07DX005 (ip), vehicle: saline with Tween-80): 108 % of control | T/C (endpoint: median tumor weight (est.), dose: 6.25 mg/kg/injection, schedule: Q07DX005 (ip), vehicle: saline with Tween-80): 118 % of control | T/C [7]: 156 % of control

COC1=C(OC)C(=O)C(C/C=C(\C)CC/C=C(\C)CC/C=C(\C)CC/C=C(\C)CC/C=C(\C)CC/C=C(\C)CC/C=C(\C)CC/C=C(\C)CC/C=C(\C)CCC=C(C)C)=C(C)C1=O
T/C [7]: 59 % of control | T/C [8]: 67 % of control | T/C [9]: 47 % of control | T/C [10]: 93 % of control | T/C (endpoint: median tumor weight (est.), dose: 200.0 mg/kg/injection, schedule: Q07DX005 (ip), vehicle: saline with Tween-80): 122 % of control | T/C (endpoint: median tumor weight (est.), dose: 400.0 mg/kg/injection, schedule: Q07DX005 (ip), vehicle: saline with Tween-80): 76 % of control

COC1=NCN=C2SC=C(N)N=C12
T/C (endpoint: median tumor weight (est.), dose: 6.25 mg/kg/injection, schedule: Q07DX005 (ip), vehicle: saline): 208 % of control | T/C (endpoint: median tumor weight (est.), dose: 12.5 mg/kg/injection, schedule: Q07DX005 (ip), vehicle: saline): 76 % of control | T/C [11]: 107 % of control | T/C [12]: 156 % of control

C=C(C)C(=O)OC1C/C(CO)=C\C(O)C/C(C)=C/C2OC(=O)C(=C)C21 (stereo not drawn)
T/C (endpoint: median tumor weight change, dose: 12.0 mg/kg/injection, schedule: Q01DX001 (ip), vehicle: saline + alcohol): 86 % of control | T/C (endpoint: median tumor weight change, dose: 25.0 mg/kg/injection, schedule: Q01DX001 (ip), vehicle: saline + alcohol): 49 % of control | T/C (endpoint: median tumor weight change, dose: 50.0 mg/kg/injection, schedule: Q01DX001 (ip), vehicle: saline + alcohol): 69 % of control | T/C (endpoint: median tumor weight change, dose: 100.0 mg/kg/injection, schedule: Q01DX001 (ip), vehicle: saline + alcohol): 60 % of control

ClCC[N+]12CC[N+](CCCl)(CC1)C2 (tested in a mixture with another compound)
T/C [11]: 75 % of control | T/C [12]: 67 % of control | T/C (endpoint: median tumor weight (est.), dose: 100.0 mg/kg/injection, schedule: Q07DX005 (ip), vehicle: saline): 93 % of control | T/C (endpoint: median tumor weight (est.), dose: 200.0 mg/kg/injection, schedule: Q07DX005 (ip), vehicle: saline): 43 % of control | T/C (endpoint: median tumor weight (est.), dose: 400.0 mg/kg/injection, schedule: Q07DX005 (ip), vehicle: saline): 43 % of control | T/C (endpoint: median tumor weight (est.), dose: 600.0 mg/kg/injection, schedule: Q07DX005 (ip), vehicle: saline): 12 % of control

COc1ccc2c(NCCCCCCCCNc3c4ccccc4nc4cc(OC)ccc34)c3ccccc3nc2c1
T/C (endpoint: median tumor weight (est.), dose: 0.47 mg/kg/injection, schedule: Q07DX005 (ip), vehicle: other): 42 % of control | T/C (endpoint: median tumor weight (est.), dose: 0.94 mg/kg/injection, schedule: Q07DX005 (ip), vehicle: other): 63 % of control | T/C (endpoint: median tumor weight (est.), dose: 1.87 mg/kg/injection, schedule: Q07DX005 (ip), vehicle: other): 152 % of control | T/C (endpoint: median tumor weight (est.), dose: 1.88 mg/kg/injection, schedule: Q07DX005 (ip), vehicle: other): 50 % of control | T/C (endpoint: median tumor weight (est.), dose: 3.75 mg/kg/injection, schedule: Q07DX005 (ip), vehicle: other): 53 % of control | T/C (endpoint: median tumor weight (est.), dose: 7.5 mg/kg/injection, schedule: Q07DX005 (ip), vehicle: other): 36 % of control

CCCCCCCCCCCCCCCCCC(=O)Nc1ccn(C2OC(CO)C(O)C2O)c(=O)n1 (stereo not drawn)
T/C [7]: 98 % of control | T/C (endpoint: median tumor weight (est.), dose: 12.5 mg/kg/injection, schedule: Q07DX005 (ip), vehicle: suspension in saline): 93 % of control | T/C [8]: 52 % of control | T/C (endpoint: median tumor weight (est.), dose: 25.0 mg/kg/injection, schedule: Q07DX005 (ip), vehicle: suspension in saline): 27 % of control | T/C [9]: 49 % of control | T/C (endpoint: median tumor weight (est.), dose: 50.0 mg/kg/injection, schedule: Q07DX005 (ip), vehicle: suspension in saline): 45 % of control | T/C (endpoint: median tumor weight (est.), dose: 77.0 mg/kg/injection, schedule: Q07DX005 (ip), vehicle: saline with Tween-80): 25 % of control | T/C [10]: 13 % of control | T/C (endpoint: median tumor weight (est.), dose: 100.0 mg/kg/injection, schedule: Q07DX005 (ip), vehicle: suspension in saline): 53 % of control | T/C (endpoint: median tumor weight (est.), dose: 118.0 mg/kg/injection, schedule: Q07DX005 (ip), vehicle: saline with Tween-80): 7 % of control

Cc1c2oc3c(C)ccc(C(=O)NC4C(=O)NC(C(C)C)C(=O)N5CCCC5C(=O)N(C)CC(=O)N(C)C(C(C)C)C(=O)OC4C)c3nc-2c(C(=O)NC2C(=O)NC(C(C)C)C(=O)N3CCC3C(=O)N(C)CC(=O)N(C)C(C(C)C)C(=O)OC2C)c(N)c1=O (stereo not drawn) (I: TV[Aze][Sar][NMeV] / II: TVP[Sar][NMeV]; ester I:1-I:C, II:1-II:C; linker I:N-II:N via Actinocin(1to9); configuration not given here)
T/C (endpoint: median tumor weight (est.), dose: 300.0 micrograms/kg/injection, schedule: Q07DX005 (ip), vehicle: saline + alcohol): 34 % of control and 44 % of control | T/C (endpoint: median tumor weight (est.), dose: 600.0 micrograms/kg/injection, schedule: Q07DX005 (ip), vehicle: saline + alcohol): 2 % of control

C/C=C\C1OC1(C)c1cc(=O)c2c(C)cc3c(c2o1)C(=O)c1c(O)c(C2CC(C)(N(C)C)C(OC(C)=O)C(C)O2)cc(C2CC(N(C)C)C(O)C(C)O2)c1C3=O (stereo not drawn)
T/C (endpoint: median tumor weight change, dose: 0.31 mg/kg/injection, schedule: Q01DX001 (ip), vehicle: saline + alcohol): 69 % of control | T/C (endpoint: median tumor weight change, dose: 0.62 mg/kg/injection, schedule: Q01DX001 (ip), vehicle: saline + alcohol): 85 % of control | T/C (endpoint: median tumor weight change, dose: 1.25 mg/kg/injection, schedule: Q01DX001 (ip), vehicle: saline + alcohol): 70 % of control | T/C (endpoint: median tumor weight change, dose: 2.5 mg/kg/injection, schedule: Q01DX001 (ip), vehicle: saline + alcohol): 31 % of control | T/C (endpoint: median tumor weight change, dose: 5.0 mg/kg/injection, schedule: Q01DX001 (ip), vehicle: saline + alcohol): 34 % of control | T/C (endpoint: median tumor weight change, dose: 10.0 mg/kg/injection, schedule: Q01DX001 (ip), vehicle: saline + alcohol): 25 % of control

Cc1ccc(S(=O)(=O)N/N=C/C(=O)O)cc1
T/C (endpoint: median tumor weight (est.), dose: 12.5 mg/kg/injection, schedule: Q07DX005 (ip), vehicle: Klucel (hydroxypropylcellulose) (HPC)): 60 % of control | T/C (endpoint: median tumor weight (est.), dose: 12.5 mg/kg/injection, schedule: Q07DX005 (ip), vehicle: other): 97 % of control | T/C [1]: 120 % of control | T/C (endpoint: median tumor weight (est.), dose: 25.0 mg/kg/injection, schedule: Q07DX005 (ip), vehicle: other): 70 % of control and 76 % of control | T/C [2]: 62 % of control | T/C (endpoint: median tumor weight (est.), dose: 100.0 mg/kg/injection, schedule: Q07DX005 (ip), vehicle: Klucel (hydroxypropylcellulose) (HPC)): 53 % of control

C/C=C1\C[C@@H]2C(OC)Nc3cc(O)c(OC)cc3C(=O)N2C1 (stereo partly drawn)
T/C (endpoint: median tumor weight change, dose: 0.06 mg/kg/injection, schedule: Q01DX001 (ip), vehicle: saline): 105 % of control | T/C (endpoint: median tumor weight change, dose: 0.12 mg/kg/injection, schedule: Q01DX001 (ip), vehicle: saline): 96 % of control | T/C (endpoint: median tumor weight change, dose: 0.25 mg/kg/injection, schedule: Q01DX001 (ip), vehicle: saline): 105 % of control | T/C (endpoint: median tumor weight change, dose: 0.31 mg/kg/injection, schedule: Q01DX001 (ip), vehicle: suspension in saline): 76 % of control | T/C (endpoint: median tumor weight change, dose: 0.5 mg/kg/injection, schedule: Q01DX001 (ip), vehicle: saline): 90 % of control | T/C (endpoint: median tumor weight change, dose: 0.62 mg/kg/injection, schedule: Q01DX001 (ip), vehicle: suspension in saline): 53 % of control | T/C (endpoint: median tumor weight change, dose: 1.0 mg/kg/injection, schedule: Q01DX001 (ip), vehicle: saline): 92 % of control | T/C (endpoint: median tumor weight change, dose: 1.25 mg/kg/injection, schedule: Q01DX001 (ip), vehicle: suspension in saline): 43 % of control | T/C (endpoint: median tumor weight change, dose: 2.0 mg/kg/injection, schedule: Q01DX001 (ip), vehicle: saline): 42 % of control
